≈ marks a conversion by molar mass, not a printed value.

Holding throughout (assay type): functional
In one assay the test system is Shigella sp. Briefly: Antibacterial activity against Shigella sp. after 48 hrs by agar well diffusion method.
The next assay deals with Escherichia coli. Briefly: Antibacterial activity against Escherichia coli after 48 hrs by agar well diffusion method.
A further assay has as its system Pseudomonas aeruginosa. Briefly: Antibacterial activity against Pseudomonas aeruginosa after 48 hrs by agar well diffusion method. On the technique in general: A growth-free zone around the sample is the usual read-out of agar diffusion tests.
The subject of another assay is Vibrio cholerae. Briefly: Antibacterial activity against Vibrio cholerae after 48 hrs by agar well diffusion method.
The test system of another assay is Staphylococcus aureus. Briefly: Antibacterial activity against Staphylococcus aureus after 48 hrs by agar well diffusion method.
A further assay relates to Klebsiella pneumoniae. As to the kind of experiment: Antibacterial activity against Klebsiella pneumoniae after 48 hrs by agar well diffusion method.

With `[Br-].[Br-].c1cc2cc(c1)C[n+]1cn(c3ccccc31)Cc1cc3ccccc3nc1Oc1ccc3ccccc3c1-c1c(ccc3ccccc13)Oc1nc3ccccc3cc1Cn1c[n+](c3ccccc31)C2`, the minimum inhibitory concentration (MIC) was 10 µg/mL in the assay with Shigella sp.; 15 µg/mL in the assay on Escherichia coli; 25 µg/mL against Pseudomonas aeruginosa; 10 µg/mL with Vibrio cholerae; 15 µg/mL against Staphylococcus aureus; 15 µg/mL in the assay with Klebsiella pneumoniae.

Take `[Br-].[Br-].c1cc2nc(c1)C[n+]1cn(c3ccccc31)Cc1cc3ccccc3nc1Oc1ccccc1Oc1nc3ccccc3cc1Cn1c[n+](c3ccccc31)C2`: the minimum inhibitory concentration (MIC) with Shigella sp. worked out at 40 µg/mL; against Escherichia coli, 35 µg/mL; with Pseudomonas aeruginosa, 25 µg/mL; in the assay on Vibrio cholerae, 30 µg/mL; in the assay on Staphylococcus aureus it was 35 µg/mL; in the assay on Klebsiella pneumoniae, 45 µg/mL.

For `[Br-].[Br-].c1cc2nc(c1)C[n+]1ccn(c1)Cc1cc3ccccc3nc1Oc1ccc3ccccc3c1-c1c(ccc3ccccc13)Oc1nc3ccccc3cc1Cn1cc[n+](c1)C2`, the MIC in the assay on Shigella sp. was 10 µg/mL; in the assay on Escherichia coli, 10 µg/mL; in the assay on Pseudomonas aeruginosa, 20 µg/mL; in the assay on Vibrio cholerae, 10 µg/mL; in the assay with Staphylococcus aureus, 15 µg/mL; with Klebsiella pneumoniae, 15 µg/mL.

Take `[Br-].[Br-].c1cc2nc(c1)C[n+]1cn(c3ccccc31)Cc1cc3ccccc3nc1Oc1ccc3ccccc3c1-c1c(ccc3ccccc13)Oc1nc3ccccc3cc1Cn1c[n+](c3ccccc31)C2`: the minimal inhibitory concentration (MIC) turned out to be 45 µg/mL in the assay with Shigella sp.; 30 µg/mL with Escherichia coli; 20 µg/mL in the assay with Pseudomonas aeruginosa; 45 µg/mL in the assay on Vibrio cholerae; 45 µg/mL with Staphylococcus aureus; 30 µg/mL with Klebsiella pneumoniae.

`[Br-].[Br-].c1cc2cc(c1)C[n+]1ccn(c1)Cc1cc3ccccc3nc1Oc1ccc3ccccc3c1-c1c(ccc3ccccc13)Oc1nc3ccccc3cc1Cn1cc[n+](c1)C2`: the MIC against Shigella sp. was found to be 15 µg/mL; against Escherichia coli, 20 µg/mL; in the assay with Pseudomonas aeruginosa it was 25 µg/mL; against Vibrio cholerae, 10 µg/mL; with Staphylococcus aureus it was 15 µg/mL; against Klebsiella pneumoniae it was 10 µg/mL.

`[Br-].[Br-].c1cc2cc(c1)C[n+]1ccn(c1)Cc1cc3ccccc3nc1Oc1ccccc1Oc1nc3ccccc3cc1Cn1cc[n+](c1)C2`: the MIC in the assay with Shigella sp. is 45 µg/mL; against Escherichia coli it was 30 µg/mL; in the assay with Pseudomonas aeruginosa it was 30 µg/mL; against Vibrio cholerae, 35 µg/mL; in the assay on Staphylococcus aureus it was 45 µg/mL; with Klebsiella pneumoniae, 40 µg/mL.

Regarding `[Br-].[Br-].c1cc2cc(c1)C[n+]1cn(c3ccccc31)Cc1cc3ccccc3nc1Oc1ccccc1Oc1nc3ccccc3cc1Cn1c[n+](c3ccccc31)C2`, the MIC was 55 µg/mL against Shigella sp.; 30 µg/mL with Escherichia coli; 40 µg/mL against Pseudomonas aeruginosa; 25 µg/mL with Vibrio cholerae; 45 µg/mL in the assay on Staphylococcus aureus; 60 µg/mL with Klebsiella pneumoniae.

As for `[Br-].[Br-].c1cc2nc(c1)C[n+]1ccn(c1)Cc1cc3ccccc3nc1Oc1ccccc1Oc1nc3ccccc3cc1Cn1cc[n+](c1)C2`, the MIC with Shigella sp. was 25 µg/mL; in the assay with Escherichia coli, 20 µg/mL; in the assay on Pseudomonas aeruginosa it was 25 µg/mL; with Vibrio cholerae, 15 µg/mL; in the assay with Staphylococcus aureus, 30 µg/mL; against Klebsiella pneumoniae, 25 µg/mL.

On to `CN[C@@H]1[C@H](O[C@H]2[C@H](O[C@H]3[C@H](O)[C@@H](O)[C@H](N=C(N)N)[C@@H](O)[C@@H]3N=C(N)N)O[C@@H](C)[C@]2(O)C=O)O[C@@H](CO)[C@H](O)[C@H]1O` [STREPTOMYCIN], for which the MIC in the assay with Shigella sp. came out at 25 µg/mL (≈ 43 µM); in the assay with Escherichia coli, 20 µg/mL (≈ 34.4 µM); in the assay with Pseudomonas aeruginosa, 45 µg/mL (≈ 77.4 µM); with Vibrio cholerae, 25 µg/mL (≈ 43 µM); against Staphylococcus aureus, 25 µg/mL (≈ 43 µM); in the assay on Klebsiella pneumoniae, 25 µg/mL (≈ 43 µM).

The term MIC denotes the smallest concentration in the dilution series that meets the test's criterion for growth inhibition. Higher therefore signals a less susceptible organism.

Source of the values: ChEMBL document CHEMBL1137000, “Synthesis and antibacterial activity of some novel imidazole-based dicationic quinolinophanes” (2009).
